Assays:
Assay in all cases: Bliss excess, mean over the matrix (fraction); higher = more synergy
[1] = test system: NCI-H1781 (Lung Adenocarcinoma)
Summary of the method: (§1)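 Bliss excess equals the observed combination effect minus the expected value EA + EB − EA·EB, where EA and EB are the effects of each agent alone. Combination Emax is the second-highest inhibition within the matrix. Inhibition was scaled from CellTiter-Glo 2.0 luminescence, with 0 set by vehicle wells and 1 by blank wells, after 72 hours of two-drug dosing of cells plated in 1536-well plates.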

[2] = test system: NCI-H1793 (Lung Adenocarcinoma)
Summary of the method: as §1

CAL-78 (Chondrosarcoma) = test system: CAL-78 (Chondrosarcoma)
Summary of the method: as §1

ES7 (Ewing's Sarcoma) = test system: ES7 (Ewing's Sarcoma)
Summary of the method: as §1

[3] = test system: TGBC24TKB (Biliary Tract Carcinoma)
Summary of the method: as §1

[4] = test system: NCI-H1299 (Non-Small Cell Lung Carcinoma)
Summary of the method: as §1

[5] = test system: SW1783 (Low Grade Glioma)
Summary of the method: as §1

[6] = test system: SW756 (Cervical Carcinoma)
Summary of the method: as §1

[7] = test system: KARPAS-1106P (B-Cell Non-Hodgkin's Lymphoma)
Summary of the method: as §1

[8] = test system: MFH-ino (Other Solid Carcinomas)
Summary of the method: as §1

J82 (Bladder Carcinoma) = test system: J82 (Bladder Carcinoma)
Summary of the method: as §1

[9] = test system: KATOIII (Gastric Carcinoma)
Summary of the method: as §1

[10] = test system: SUIT-2 (Pancreatic Carcinoma)
Summary of the method: as §1

IGR-1 (Melanoma) = test system: IGR-1 (Melanoma)
Summary of the method: as §1

[11] = test system: HT-29 (Colorectal Carcinoma)
Summary of the method: as §1

[12] = test system: EM-2 (Chronic Myelogenous Leukemia)
Summary of the method: as §1

[13] = test system: C3A (Hepatocellular Carcinoma)
Summary of the method: as §1

[14] = test system: DMS-273 (Small Cell Lung Carcinoma)
Summary of the method: as §1

[15] = test system: OCI-AML2 (Acute Myeloid Leukemia)
Summary of the method: as §1

[16] = test system: MDA-MB-157 (Breast Carcinoma)
Summary of the method: as §1

Structure (SMILES) | Bliss excess [1] | Bliss excess [2] | Bliss excess (CAL-78 (Chondrosarcoma)) | Bliss excess (ES7 (Ewing's Sarcoma)) | Bliss excess [3] | Bliss excess [4] | Bliss excess [5] | Bliss excess [6] | Bliss excess [7] | Bliss excess [8] | Bliss excess (J82 (Bladder Carcinoma)) | Bliss excess [9] | Bliss excess [10] | Bliss excess (IGR-1 (Melanoma)) | Bliss excess [11] | Bliss excess [12] | Bliss excess [13] | Bliss excess [14] | Bliss excess [15] | Bliss excess [16]
COc1cccc(OCCCN)c1-c1cc(Nc2cnc(C#N)cn2)n[nH]1 [Prexasertib] + C=CCn1c(=O)c2cnc(Nc3ccc(N4CCN(C)CC4)cc3)nc2n1-c1cccc(C(C)(C)O)n1 [AZD1775] (first compound max 1 µM, partner max 1 µM) | 0.0258 | -0.0045 | -0.0422 | 0.0597 | 0.0429 | -0.0148 | -0.0053 | 0.0163 | -0.0047 | 0.039 | 0.096 | -0.0076 | 0.036 | 0.0284 | -0.0247 | 0.0475 | 0.0463 | 0.0795 | 0.0655 | 0.0628
CC1(C)CCC(CN2CCN(c3ccc(C(=O)NS(=O)(=O)c4ccc(NCC5CCOCC5)c([N+](=O)[O-])c4)c(Oc4cnc5[nH]ccc5c4)c3)CC2)=C(c2ccc(Cl)cc2)C1 [Venetoclax] + Cn1cnc2c(F)c(Nc3ccc(Br)cc3Cl)c(C(=O)NOCCO)cc21 [Selumetinib] (first compound max 1 µM, 7x7, partner max 3 µM) | -0.0437 | -0.0096 | -0.0619 | -0.0127 | -0.0103 | -0.0424 | -0.0595 | -0.0537 | -0.0009 | -0.0288 | -0.028 | -0.0235 | -0.0942 | -0.0405 | -0.0261 | -0.055 | -0.017 | -0.0184 | 0.014 | 0.0208
Cc1c2c(nn1C)CSCc1cc(n(C)n1)CSc1cc(c3ccccc3c1)OCCCc1c(C(=O)O)n(C)c3c-2c(Cl)ccc13 [AZD5991] + CCN(CCO)CCCOc1ccc2c(Nc3cc(CC(=O)Nc4cccc(F)c4)[nH]n3)ncnc2c1 [AZD2811] (first compound max 1 µM, 7x7, partner max 1 µM) | -0.0155 | -0.0255 | -0.0228 | 0.0267 | 0.0122 | -0.0012 | -0.0135 | 0.0141 | 0.0744 | 0.0053 | 0.0288 | -0.0687 | 0.0126 | 0.0316 | 0.0498 | -0.0729 | 0.0494 | -0.0949 | 0.126 | 0.078
COc1cccc2c1C(=O)c1c(O)c3c(c(O)c1C2=O)C[C@@](O)(C(=O)CO)C[C@@H]3O[C@H]1C[C@H](N)[C@H](O)[C@H](C)O1 [Doxorubicin] + Cc1cc2ncnn2cc1Nc1ncc2c(n1)n(C1CCOCC1)c(=O)n2C [AZD7648] (first compound max 1 µM, 7x7, partner max 10 µM) | 0.0578 | 0.0117 | 0.0132 | 0.0997 | -0.002 | 0.0329 | 0.0262 | 0.0541 | 0.0713 | 0.0216 | 0.0106 | -0.0354 | 0.0432 | 0.0132 | 0.0099 | 0.0536 | -0.0065 | 0.0727 | 0.0125 | 0.0033
CC1(C)CCC(CN2CCN(c3ccc(C(=O)NS(=O)(=O)c4ccc(NCC5CCOCC5)c([N+](=O)[O-])c4)c(Oc4cnc5[nH]ccc5c4)c3)CC2)=C(c2ccc(Cl)cc2)C1 [Venetoclax] + C1CN(CCC1(C(=O)N[C@@H](CCO)C2=CC=C(C=C2)Cl)N)C3=NC=NC4=C3C=CN4 [Capivasertib] (first compound max 1 µM, 7x7, partner max 3 µM) | -0.0811 | -0.041 | -0.0387 | -0.0178 | 0.0325 | -0.0036 | -0.0494 | -0.0171 | -0.0409 | -0.0294 | -0.0827 | -0.0691 | -0.0663 | -0.0602 | -0.0325 | -0.0593 | -0.0621 | 0.0443 | 0.0444 | -0.0187
Cc1c2c(nn1C)CSCc1cc(n(C)n1)CSc1cc(c3ccccc3c1)OCCCc1c(C(=O)O)n(C)c3c-2c(Cl)ccc13 [AZD5991] + CN(C)CCCOc1ccc(-c2ccc3ncc4c(c3c2)n(C2CCOCC2)c(=O)n4C)cn1 [AZD0156] (first compound max 1 µM, 7x7, partner max 1 µM) | -0.0155 | 0.0332 | -0.0212 | 0.0036 | -0.0044 | 0.0163 | -0.0074 | -0.0015 | -0.0352 | -0.0286 | 0.0127 | -0.0068 | 0.0035 | -0.0219 | 0.0078 | -0.0436 | -0.0266 | 0.0401 | -0.0647 | -0.0169
CCN(CCO)CCCOc1ccc2c(Nc3cc(CC(=O)Nc4cccc(F)c4)[nH]n3)ncnc2c1 [AZD2811] + O=C(c1cc(Cc2n[nH]c(=O)c3ccccc23)ccc1F)N1CCN(C(=O)C2CC2)CC1 [Olaparib] (first compound max 1 µM, 7x7, partner max 10 µM) | -0.0293 | -0.0264 | 0.0006 | -0.0184 | -0.0102 | -0.0131 | -0.0423 | -0.0232 | -0.0229 | -0.0318 | -0.0207 | -0.0332 | -0.0254 | -0.0059 | 0.0007 | -0.0589 | -0.0495 | -0.0044 | -0.0351 | 0.032
COc1cccc(OCCCN)c1-c1cc(Nc2cnc(C#N)cn2)n[nH]1 [Prexasertib] + Cc1cc2ncnn2cc1Nc1ncc2c(n1)n(C1CCOCC1)c(=O)n2C [AZD7648] (first compound max 1 µM, 7x7, partner max 10 µM) | 0.0024 | 0.0257 | -0.0473 | -0.0483 | -0.0412 | -0.0577 | -0.0281 | 0.0098 | -0.0595 | -0.0301 | 0.0089 | 0.0048 | -0.0063 | 0.0116 | -0.0377 | -0.0274 | -0.0264 | -0.0121 | -0.0211 | -0.0594
COc1nnc2ccc(N3CCC(c4ccc(OCCN5CCN(C)C(=O)[C@H]5C)cc4)CC3)nn12 [AZD5153] + CC1(C)CCC(CN2CCN(c3ccc(C(=O)NS(=O)(=O)c4ccc(NCC5CCOCC5)c([N+](=O)[O-])c4)c(Oc4cnc5[nH]ccc5c4)c3)CC2)=C(c2ccc(Cl)cc2)C1 [Venetoclax] (first compound max 1 µM, 7x7, partner max 1 µM) | -0.0599 | -0.0104 | -0.0999 | -0.0694 | -0.0456 | -0.0496 | -0.0347 | -0.0461 | -0.0308 | -0.0608 | -0.0672 | -0.0861 | -0.0769 | -0.0221 | -0.0288 | -0.0384 | -0.105 | -0.0627 | -0.0422 | -0.0454
C[C@@H](c1ccc2nccn2c1)n1nnc2ncc(-c3cnn(C)c3)nc21 [Savolitinib] + CC1(C)CCC(CN2CCN(c3ccc(C(=O)NS(=O)(=O)c4ccc(NCC5CCOCC5)c([N+](=O)[O-])c4)c(Oc4cnc5[nH]ccc5c4)c3)CC2)=C(c2ccc(Cl)cc2)C1 [Venetoclax] (first compound max 1 µM, 7x7, partner max 1 µM) | -0.0702 | -0.0566 | -0.0872 | -0.0354 | -0.0283 | -0.0418 | -0.0442 | -0.0923 | -0.0157 | -0.0657 | -0.0895 | -0.0364 | -0.0737 | -0.0583 | -0.0358 | -0.0593 | -0.0545 | -0.0398 | -0.0246 | -0.0411
CC1(C)CCC(CN2CCN(c3ccc(C(=O)NS(=O)(=O)c4ccc(NCC5CCOCC5)c([N+](=O)[O-])c4)c(Oc4cnc5[nH]ccc5c4)c3)CC2)=C(c2ccc(Cl)cc2)C1 [Venetoclax] + C[C@@H]1COCCN1C2=NC(=NC(=C2)C3(CC3)[S@](=N)(=O)C)C4=C5C=CNC5=NC=C4 [AZD6738] (first compound max 1 µM, 7x7, partner max 10 µM) | 0.0284 | 0.0073 | 0.0138 | 0.0245 | -0.0188 | -0.0203 | -0.0555 | -0.0249 | -0.0213 | -0.0926 | 0.0106 | -0.0859 | -0.0491 | 0.0165 | -0.0215 | -0.0272 | -0.0503 | -0.0779 | 0.0166 | -0.0195
C=CCn1c(=O)c2cnc(Nc3ccc(N4CCN(C)CC4)cc3)nc2n1-c1cccc(C(C)(C)O)n1 [AZD1775] + O=C(c1cc(Cc2n[nH]c(=O)c3ccccc23)ccc1F)N1CCN(C(=O)C2CC2)CC1 [Olaparib] (first compound max 1 µM, partner max 10 µM) | -0.0451 | -0.0145 | -0.0833 | -0.0453 | -0.0499 | -0.0048 | -0.0028 | -0.0416 | -0.0513 | -0.0128 | -0.025 | -0.0227 | -0.0049 | 0.0054 | -0.0368 | -0.0243 | -0.0179 | -0.0334 | 0.0249 | -0.0379
CN(C)CCCOc1ccc(-c2ccc3ncc4c(c3c2)n(C2CCOCC2)c(=O)n4C)cn1 [AZD0156] + C=CCn1c(=O)c2cnc(Nc3ccc(N4CCN(C)CC4)cc3)nc2n1-c1cccc(C(C)(C)O)n1 [AZD1775] (first compound max 1 µM, partner max 1 µM) | -0.0014 | -0.0489 | -0.0854 | -0.0153 | -0.0224 | -0.0179 | -0.0624 | -0.0386 | -0.0384 | -0.0954 | -0.0194 | -0.064 | 0.0011 | -0.031 | -0.0411 | -0.0548 | -0.0866 | -0.0142 | -0.0258 | -0.0177
C[C@@H](c1ccc2nccn2c1)n1nnc2ncc(-c3cnn(C)c3)nc21 [Savolitinib] + Cc1c2c(nn1C)CSCc1cc(n(C)n1)CSc1cc(c3ccccc3c1)OCCCc1c(C(=O)O)n(C)c3c-2c(Cl)ccc13 [AZD5991] (first compound max 1 µM, 7x7, partner max 1 µM) | -0.0293 | -0.0351 | -0.117 | -0.017 | -0.029 | -0.0519 | -0.0133 | -0.0692 | -0.0518 | -0.0572 | -0.0717 | -0.0149 | -0.0224 | -0.0112 | -0.0297 | -0.0401 | -0.0229 | -0.0356 | -0.0167 | -0.0501

Source: the supplement of paper PMC11061612
